Tests used:
[1] = molecular target: human JAK2 (Homo sapiens (Human), UniProt O60674); settings: read-out: JAK2 IC50
[2] = molecular target: human FAK (Homo sapiens (Human), UniProt Q05397); settings: read-out: FAK IC50
Sequence of human FAK (Q05397 whole entry): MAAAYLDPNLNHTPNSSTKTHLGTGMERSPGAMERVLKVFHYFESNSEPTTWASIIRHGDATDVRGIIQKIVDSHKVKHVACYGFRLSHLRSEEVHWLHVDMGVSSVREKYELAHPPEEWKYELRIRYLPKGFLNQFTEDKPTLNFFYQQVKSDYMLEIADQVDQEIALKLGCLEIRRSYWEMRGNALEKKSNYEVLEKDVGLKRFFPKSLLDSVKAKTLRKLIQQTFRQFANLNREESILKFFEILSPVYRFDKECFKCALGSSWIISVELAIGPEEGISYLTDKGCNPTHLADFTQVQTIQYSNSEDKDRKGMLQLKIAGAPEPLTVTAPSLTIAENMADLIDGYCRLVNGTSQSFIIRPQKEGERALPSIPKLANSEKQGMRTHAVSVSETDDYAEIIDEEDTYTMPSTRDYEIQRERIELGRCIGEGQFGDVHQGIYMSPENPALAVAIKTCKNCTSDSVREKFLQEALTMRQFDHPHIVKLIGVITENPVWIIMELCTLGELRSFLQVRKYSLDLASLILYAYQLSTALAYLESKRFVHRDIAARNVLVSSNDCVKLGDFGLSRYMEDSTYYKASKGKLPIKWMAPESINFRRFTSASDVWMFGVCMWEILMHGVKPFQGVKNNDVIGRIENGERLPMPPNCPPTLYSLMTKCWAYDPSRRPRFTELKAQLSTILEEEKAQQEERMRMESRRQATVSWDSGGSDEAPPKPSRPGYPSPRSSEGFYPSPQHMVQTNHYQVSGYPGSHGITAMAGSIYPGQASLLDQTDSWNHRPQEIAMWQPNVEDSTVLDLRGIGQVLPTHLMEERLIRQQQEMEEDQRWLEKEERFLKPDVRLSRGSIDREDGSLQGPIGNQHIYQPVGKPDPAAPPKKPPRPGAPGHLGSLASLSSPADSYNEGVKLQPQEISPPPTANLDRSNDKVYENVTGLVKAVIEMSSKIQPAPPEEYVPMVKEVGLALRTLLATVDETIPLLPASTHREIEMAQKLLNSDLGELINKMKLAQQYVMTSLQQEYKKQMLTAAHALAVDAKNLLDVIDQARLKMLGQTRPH

Sequence of human JAK2 (O60674 815-1132): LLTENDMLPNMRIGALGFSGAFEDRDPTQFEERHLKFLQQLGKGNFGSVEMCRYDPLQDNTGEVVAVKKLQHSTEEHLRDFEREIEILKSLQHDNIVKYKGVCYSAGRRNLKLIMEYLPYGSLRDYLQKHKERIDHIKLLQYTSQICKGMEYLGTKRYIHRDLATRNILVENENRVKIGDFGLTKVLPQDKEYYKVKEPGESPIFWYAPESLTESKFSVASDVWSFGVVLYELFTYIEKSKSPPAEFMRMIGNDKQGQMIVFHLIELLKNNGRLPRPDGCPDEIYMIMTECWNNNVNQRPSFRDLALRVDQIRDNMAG

Compound | IC50 [1] | IC50 [2]
COc1ccc(C(F)(F)F)cc1-c1cccn2nc(Nc3cccc(C4CCNCC4)c3)nc12 [Example 257, [8-(2-Methoxy-5-trifluoromethyl-phenyl)-[1,2,4]triazolo[1,5-a]pyridin-2-yl]-(3-piperidin-4-yl-phenyl)-amine] | 28.9 nM | 481 nM
CCOc1ccccc1-c1cccn2nc(Nc3ccc4c(c3)CCN(CC(=O)N(C)C)CC4)nc12 [Example 246] | 212 nM | 10000 nM
CN(Cc1ccccc1Nc1cccn2nc(Nc3ccc(OCCN4CCCC4)cc3)nc12)S(C)(=O)=O [Example 173, N-Methyl-N-(2-{2-[4-(2-pyrrolidin-1-yl-ethoxy)-phenylamino]-[1,2,4]triazolo[1,5-a]pyridin-8-ylamino}-benzyl)-methanesulfonamide] | 143 nM | 2000 nM
CN1CCN(Cc2cccc(Nc3nc4cccc(-c5ccc(S(C)(=O)=O)cc5)n4n3)c2)CC1 [Example 118, [5-(4-Methanesulfonyl-phenyl)-[1,2,4]triazolo[1,5-a]pyridin-2-yl]-[3-(4-methyl-piperazin-1-ylmethyl)-phenyl]-amine] | 1.43 nM | 2860 nM
CN(c1ccccc1CNc1cccn2nc(Nc3ccc4cnccc4c3)nc12)S(C)(=O)=O [Example 201, N-(2-{[2-(Isoquinolin-6-ylamino)-[1,2,4]triazolo[1,5-a]pyridin-8-ylamino]-methyl}-phenyl)-N-methyl-methanesulfonamide] | 116 nM | 167 nM
c1ccc(-c2cccn3nc(Nc4ccc5c(c4)CCNCC5)nc23)c(OCC2CC2)c1 [Example 301, [8-(2-Cyclopropylmethoxy-phenyl]-[1,2,4]triazolo[1,5a]pyridine-2-yl]-(2,3,4,5-tetrahydro-benzo[d]azepin-7-yl)-amine] | 112 nM | 2790 nM
c1cncc(CNc2cccn3nc(Nc4ccc(OCCN5CCCC5)cc4)nc23)c1 [Example 154, N(8)-Pyridin-3-ylmethyl-N(2)-[4-(2-pyrrolidin-1-yl-ethoxy)-phenyl]-[1,2,4]triazolo[1,5-a]pyridine-2,8-diamine] | 571 nM | 10000 nM
COc1ccccc1CNc1cccn2nc(Nc3cccnc3)nc12 [Example 400, N(8)-(2-Methoxy-benzyl)-N(2)-pyridin-3-yl-[1,2,4]triazolo[1,5-a]pyridine-2,8-diamine] | 32.3 nM | 3120 nM
CN1CCN(c2ccc(Nc3nc4c(NCc5cccnc5N(C)S(C)(=O)=O)cccn4n3)cc2)CC1 [Example 122, N-Methyl-N-[3-({2-[4-(4-methyl-piperazin-1-yl)-phenylamino]-[1,2,4]triazolo[1,5-a]pyridin-8-ylamino}-methyl)-pyridin-2-yl]-methanesulfonamide] | 20.7 nM | 30 nM
CC(Nc1cccn2nc(Nc3ccc(N4CCN(C)CC4)cc3)nc12)c1ccccc1N(C)S(C)(=O)=O (centres unmarked) [Example 197, N-Methyl-N-[2-(1-{2-[4-(4-methyl-piperazin-1-yl)-phenylamino]-[1,2,4]triazolo[1,5-a]pyridin-8-ylamino}-ethyl)-phenyl]-methanesulfonamide] | 418 nM | 999 nM
CS(=O)(=O)c1cccc(-c2cccn3nc(Nc4cccc(N5CCOCC5)c4)nc23)c1 [Example 29, [8-(3-Methanesulfonyl-phenyl)-[1,2,4]triazolo[1,5-a]pyridin-2-yl]-(3-morpholin-4-yl-phenyl)-amine] | 5.6 nM | 1350 nM
CN(C)C(=O)N1CCc2ccc(Nc3nc4c(-c5cc(Cl)ccc5OCC(F)F)cccn4n3)cc2CC1 [Example 382, 7-{8-[5-Chloro-2-(2,2-difluoro-ethoxy)-phenyl]-[1,2,4]triazolo[1,5-a]pyridin-2-ylamino}-1,2,4,5-tetrahydro-3-benzazepine-3-carboxylic acid dimethylamide] | 198 nM | 2000 nM
CCN1CCP(=O)(c2ccc(Nc3nc4c(-c5ccc(S(C)(=O)=O)cc5)cccn4n3)cc2)CC1 [Example 411, N-[4-(1-ethyl-4-oxido-1,4-azaphosphinan-4-yl)phenyl]-8-[4-(methylsulfonyl)phenyl][1,2,4]triazolo[1,5-a]pyridin-2-amine] | 1.62 nM | 1860 nM
CN1CCN(c2cccc(Nc3nc4c(NCc5cccc(S(C)(=O)=O)c5)cccn4n3)c2)CC1 [Example 161, N(8)-(3-Methanesulfonyl-benzyl)-N(2)-[3-(4-methyl-piperazin-1-yl)-phenyl]-[1,2,4]triazolo[1,5-a]pyridine-2,8-diamine] | 399 nM | 10000 nM
COc1cnc(-c2cccn3nc(Nc4ccc(C5CCNCC5)cc4)nc23)cn1 [Example 285] | 73.8 nM | 2470 nM
CS(=O)(=O)c1ccc(-c2cccn3nc(Nc4ccc(OCCN5CCCC5)cc4)nc23)cc1 [Example 10, [8-(4-Methanesulfonyl-phenyl)-[1,2,4]triazolo[1,5-a]pyridin-2-yl]-[4-(2-pyrrolidin-1-yl-ethoxy)-phenyl]-amine] | 1 nM | 206 nM

Compound | IC50 [1] | IC50 [2]
CN1CCN(c2cccc(Nc3nc4c(Nc5cccc(S(C)(=O)=O)c5)cccn4n3)c2)CC1 [Example 110, N(8)-(3-Methanesulfonyl-phenyl)-N(2)-[3-(4-methyl-piperazin-1-yl)-phenyl]-[1,2,4]triazolo[1,5-a]pyridine-2,8-diamine] | 1310 nM | 3000 nM
CN1CCN(c2ccc(Nc3nc4c(N(C)Cc5ccccc5N(C)S(C)(=O)=O)cccn4n3)cc2)CC1 [Example 185, N-Methyl-N-{2-[(methyl-{2-[4-(4-methyl-piperazin-1-yl)-phenylamino]-[1,2,4]triazolo[1,5-a]pyridin-8-yl}-amino)-methyl]-phenyl}-methanesulfonamide] | 51.1 nM | 62.5 nM
CS(=O)(=O)c1ccc(-c2cccn3nc(Nc4ccc5c(c4)CCNCC5)nc23)c(OCC(F)F)c1 [Example 370, {8-[2-(2,2-Difluoro-ethoxy)-4-methanesulfonyl-phenyl]-[1,2,4]triazolo[1,5-a]pyridin-2-yl}-(2,3,4,5-tetrahydro-1H-3-benzazepin-7-yl)-amine] | 61.9 nM | 999 nM
CN1CCN(c2ccc(Nc3nc4c(-c5ccc(S(C)(=O)=O)cc5)cc(C(F)(F)F)cn4n3)cn2)CC1 [Example 104, [8-(4-Methanesulfonyl-phenyl)-6-trifluoromethyl-[1,2,4]triazolo[1,5-a]pyridin-2-yl]-[6-(4-methyl-piperazin-1-yl)-pyridin-3-yl]-amine] | 928 nM | 669 nM
COc1ccc(Nc2nc3c(-c4cn[nH]c4)cccn3n2)cc1 [Example 39, (4-Methoxy-phenyl)-[8-(1H-pyrazol-4-yl)-[1,2,4]triazolo[1,5-a]pyridin-2-yl]-amine] | 32.6 nM | 2360 nM
COc1cccc(Nc2nc3c(-c4ccc(S(C)(=O)=O)cc4)cccn3n2)c1 [Example 40, [8-(4-Methanesulfonyl-phenyl)-[1,2,4]triazolo[1,5-a]pyridin-2-yl]-(3-methoxy-phenyl)-amine] | 1 nM | 1360 nM
CN1CCN(c2cccc(Nc3nc4cncc(-c5ccc(S(C)(=O)=O)cc5)n4n3)c2)CC1 [Example 107, [5-(4-Methanesulfonyl-phenyl)-[1,2,4]triazolo[1,5-a]pyrazin-2-yl]-[3-(4-methyl-piperazin-1-yl)-phenyl]-amine] | 307 nM | 855 nM
CS(=O)(=O)c1ccc(-c2cccn3nc(Nc4cccc(N5CCN(CCCF)CC5)c4)nc23)cc1 [Example 187, {3-[4-(3-Fluoro-propyl)-piperazin-1-yl]-phenyl}-[8-(4-methanesulfonyl-phenyl)-[1,2,4]triazolo[1,5-a]pyridin-2-yl]-amine] | 4.93 nM | 2440 nM
CN(c1ncccc1CNc1cccn2nc(Nc3ccc(OCCN4CCCC4)cc3)nc12)S(C)(=O)=O [Example 124, N-Methyl-N-[3-({2-[4-(2-pyrrolidin-1-yl-ethoxy)-phenylamino]-[1,2,4]triazolo[1,5-a]pyridin-8-ylamino}-methyl)-pyridin-2-yl]-methanesulfonamide] | 41.2 nM | 59.7 nM
CN1CCN(c2ccc(Nc3nc4c(OCc5ccccc5N(C)S(C)(=O)=O)cccn4n3)cc2)CC1 [Example 195, N-Methyl-N-(2-{2-[4-(4-methyl-piperazin-1-yl)-phenylamino]-[1,2,4]triazolo[1,5-a]pyridin-8-yloxymethyl}-phenyl)-methanesulfonamide] | 15 nM | 21.8 nM
CN1CCN(c2ccc(Nc3nc4c(Nc5cccnc5N(C)S(C)(=O)=O)cccn4n3)cc2)CC1 [Example 131, N-Methyl-N-(3-{2-[4-(4-methyl-piperazin-1-yl)-phenylamino]-[1,2,4]triazolo[1,5-a]pyridin-8-ylamino}-pyridin-2-yl)-methanesulfonamide] | 11.4 nM | 1370 nM
CS(=O)(=O)c1ccc(-c2cccn3nc(Nc4cccc(CN5CCS(=O)(=O)CC5)c4)nc23)cc1 [Example 120, N-{3-[(1,1-dioxidothiomorpholin-4-yl)methyl]phenyl}-8-[4-(methylsulfonyl)phenyl][1,2,4]triazolo[1,5-a]pyridin-2-amine] | 0.67 nM | 2000 nM
CC(C)S(=O)(=O)c1ccc(-c2cccn3nc(Nc4cccc(N5CCN(C)CC5)c4)nc23)cc1 [Example 53, [3-(4-Methyl-piperazin-1-yl)-phenyl]-{8-[4-(propane-2-sulfonyl)-phenyl]-[1,2,4]triazolo[1,5-a]pyridin-2-yl}-amine] | 1.3 nM | 865 nM
CN(C)C(=O)CN1CCc2ccc(Nc3nc4c(-c5ccccc5OCC(F)F)cccn4n3)cc2CC1 [Example 368, 2-(7-{8-[2-(2,2-Difluoro-ethoxy)-phenyl]-[1,2,4]triazolo[1,5-a]pyridin-2-ylamino}-1,2,4,5-tetrahydro-3-benzazepin-3-yl)-N,N-dimethyl-acetamide] | 197 nM | 2430 nM
CN1CCN(c2cccc(Nc3nc4c(-c5ccc(S(C)(=O)=O)cc5)cccn4n3)c2)C(=O)C1 [Example 204, 1-{3-[8-(4-Methanesulfonyl-phenyl)-[1,2,4]triazolo[1,5-a]pyridin-2-ylamino]-phenyl}-4-methyl-piperazin-2-one] | 1.63 nM | 10000 nM

From patent US8501936B2 (priority 2009, dated 2013)
